Values belong to the compound of their own block, whether it stands above or below them. Starred links: 1 amine or outer side, 2 acyl side, 3 side chain; linkers in the order of their positions; H or OH if unused. Positions of bridges follow the written chain, without caps; N, C: chain ends. Non-standard residues stand in square brackets, D forms with d. Residues, ends and D or L forms follow the SMILES beside them. ξ: configuration not given here. Cys(O)(CH2CO) = O=C([C@H](C[S+]([O-])CC(=O)[*:3])N[*:1])[*:2]; NMeR = CN[C@@H](CCCNC(=N)N)C(=O)O; hArg = N=C(N)NCCCC[C@H](N)C(=O)O; 3Amb = NCc1cccc(C(=O)O)c1; ξR = N=C(N)NCCCC(N)C(=O)O; dAbu = CC[C@@H](N)C(=O)O; Mpa = O=C(O)CCS
Tests used:
[1] = In vitro inhibition of gel filtered platelet aggregation induced by ADP.
[2] = Inhibition of platelet aggregation
[3] = Inhibition of platelet aggregation; remark: listed apart in the source
[4] = Inhibition canine platelet aggregation in platelet rich plasma (PRP)
[5] = Inhibition of human platelet aggregation
[6] = Inhibition of human platelet aggregation; remark: listed apart in the source
[7] = Inhibition of ADP-induced platelet aggregation in human platelet rich plasma
[8] = Inhibition of […] and platelet aggregation in human platelet rich plasma
[9] = Inhibition of human gel filtered platelet aggregation induced by ADP
[10] = Inhibition of human platelet aggregation collected with sodium citrate as anticoagulant
[11] = Inhibition of platelet aggregation; remark: listed apart in the source
[12] = Inhibition of human platelet aggregation; remark: listed apart in the source

Compound: CC(C)[C@H](NC(=O)[C@H](CC(=O)O)NC(=O)CCNC(=O)c1ccc(C(=N)N)cc1)C(=O)O [2-{2-[3-(4-Carbamimidoyl-benzoylamino)-propionylamino]-3-carboxy-propionylamino}-3-methyl-butyric acid (Ro 43-5054)]
IC50 [2]: 0.03 µM

Compound: CCCCS(=O)(=O)NC(CC#Cc1ccc2[nH]c(=O)n(CCC3CCNCC3)c(=O)c2c1)C(=O)O (stereo unspecified) [2-(Butane-1-sulfonylamino)-5-[2,4-dioxo-3-(2-piperidin-4-yl-ethyl)-1,2,3,4-tetrahydro-quinazolin-6-yl]-pent-4-ynoic acid]
IC50 [1]: 0.037 µM

Compound: CC(C)[C@H](NC(=O)[C@H](CC(=O)O)NC(=O)CNC(=O)Cc1ccc(C(=N)N)cc1)C(=O)O
IC50 [2]: 0.3 µM

Compound: CCCCOC(=O)N[C@@H](CNC(=O)C[C@H]1CC(c2ccc(C(=N)N)cc2)=NO1)C(=O)OC [2-Butoxycarbonylamino-3-{2-[3-(4-carbamimidoyl-phenyl)-4,5-dihydro-isoxazol-5-yl]-acetylamino}-propionic acid methyl ester(DMP 754(roxifiban))]
IC50 [6]: 0.06 µM

Compound: Cc1noc(C)c1S(=O)(=O)N[C@@H](CCC(=O)N1CCC2(CC1)CCN(c1ccncc1)CC2)C(=O)O [2-(3,5-Dimethyl-isoxazole-4-sulfonylamino)-5-oxo-5-(9-pyridin-4-yl-3,9-diaza-spiro[5.5]undec-3-yl)-pentanoic acid]
IC50 [1]: 0.021 µM

Compound: C[C@@H](COc1ccc(N2CCN(c3ccncc3)CC2)cc1)CC(=O)O [3-Methyl-4-[4-(4-pyridin-4-yl-piperazin-1-yl)-phenoxy]-butyric acid (ZD 2486)]
IC50 [8]: 0.05 µM

Compound: Cc1ccc(S(=O)(=O)N[C@@H](CCC(=O)N2CCC3(CC2)C(=O)N(c2ccc(C(=N)N)cc2)C(=O)N3C)C(=O)O)cc1 [5-[3-(4-Carbamimidoyl-phenyl)-1-methyl-2,4-dioxo-1,3,8-triaza-spiro[4.5]dec-8-yl]-5-oxo-2-(toluene-4-sulfonylamino)-pentanoic acid]
IC50 [1]: 0.059 µM

Compound: C[C@@]1(c2ccc(C(=N)N)cc2)NC(=O)N(CC(=O)NC(CC(=O)O)c2ccccc2)C1=O (stereo partly specified) [3-{2-[4-(4-Carbamimidoyl-phenyl)-4-methyl-2,5-dioxo-imidazolidin-1-yl]-acetylamino}-3-phenyl-propionic acid(S1197)]
IC50 [9]: 0.02 µM

Compound: [H]/N=C(/N)c1ccc(C(=O)N[C@@H](Cc2ccc(O)cc2)C(=O)N2CCC(OCC(=O)O)CC2)cc1
IC50 [2]: 0.03 µM

Compound: O=C(NC[C@H](NS(=O)(=O)c1ccccc1)C(=O)O)c1cc2cc(OCC3CCNCC3)ccc2[nH]1 [2-Benzenesulfonylamino-3-{[5-(piperidin-4-ylmethoxy)-1H-indole-2-carbonyl]-amino}-propionic acid(L-756568)]
IC50 [1]: 0.013 µM

Compound: [H]/N=C(/N)c1ccc(C2=NO[C@@H](CC(=O)NC[C@H](NC(=O)OCCCC)C(=O)O)C2)cc1
IC50 [1]: 0.06 µM

Compound: CCOC(=O)CCN(c1ncc(-c2ccc(C(N)=NC(=O)OCC)cc2)s1)C1CCN(CC(=O)OCC)CC1 [3-[{5-[4-(Ethoxycarbonylamino-imino-methyl)-phenyl]-thiazol-2-yl}-(1-ethoxycarbonylmethyl-piperidin-4-yl)-amino]-propionic acid ethyl ester (SR121787)]
IC50 [11]: > 0.09 µM

Compound: CC(=O)NC(CCCNC(=N)N)C(=O)NCC(=O)N[C@@H](CC(=O)O)C(=O)N[C@H](C(N)=O)C(C)C (stereo partly specified) [3-[2-(2-Acetylamino-5-guanidino-pentanoylamino)-acetylamino]-N-(1-carbamoyl-2-methyl-propyl)-succinamic acid] (Ac-[ξR]GDV-NH2)
IC50 [3]: 32 µM

Compound: Cc1noc(C)c1S(=O)(=O)N[C@@H](CNC(=O)C1CCC2(CC1)CCN(c1ccncc1)CC2)C(=O)O [2-(3,5-Dimethyl-isoxazole-4-sulfonylamino)-3-[(3-pyridin-4-yl-3-aza-spiro[5.5]undecane-9-carbonyl)-amino]-propionic acid]
IC50 [1]: 0.044 µM

Compound: N=C(N)c1ccc(C(=O)Nc2cccc(C(=O)NCCC(=O)O)c2)cc1
IC50 [2]: 0.2 µM

Compound: Cc1c(C(=O)NCCC(=O)O)s/c(=N\C(=O)c2ccc(C(=N)N3CCC4(CC3)OCCO4)cc2)n1C [3-[(2-{4-[(1,4-Dioxa-8-aza-spiro[4.5]dec-8-yl)-imino-methyl]-benzoylimino}-3,4-dimethyl-2,3-dihydro-thiazole-5-carbonyl)-amino]-propionic acid (PSA0613)]
IC50 [11]: 0.022 µM

Compound: CCCCS(=O)(=O)NC(CC#Cc1ccc2nc(C)n(CCC3CCNCC3)c(=O)c2c1)C(=O)O (stereo unspecified) [2-(Butane-1-sulfonylamino)-5-[2-methyl-4-oxo-3-(2-piperidin-4-yl-ethyl)-3,4-dihydro-quinazolin-6-yl]-pent-4-ynoic acid]
IC50 [1]: 0.043 µM

Next, values leading:

IC50 [1]: 0.009 µM
Compound: CCCCS(=O)(=O)N[C@@H](CNC(=O)c1cc2n(n1)CCN(CCC1CCNCC1)C2=O)C(=O)O [(S)-2-(Butane-1-sulfonylamino)-3-{[4-oxo-5-(2-piperidin-4-yl-ethyl)-4,5,6,7-tetrahydro-pyrazolo[1,5-a]pyrazine-2-carbonyl]-amino}-propionic acid]

IC50 [1]: 0.008 µM
Compound: O=C(NC[C@H](NS(=O)(=O)c1ccccc1)C(=O)O)c1cc2c(s1)CCN(CCC1CCNCC1)C2=O [(S)-2-Benzenesulfonylamino-3-{[4-oxo-5-(2-piperidin-4-yl-ethyl)-4,5,6,7-tetrahydro-thieno[3,2-c]pyridine-2-carbonyl]-amino}-propionic acid]

IC50 [1]: 0.19 µM
Compound: N=C(N)c1ccc(C(=O)Nc2ccc3c(c2)CCC(CC(=O)O)O3)cc1 (stereo unspecified) [[6-(4-Carbamimidoyl-benzoylamino)-chroman-2-yl]-acetic acid]

IC50 [2]: 0.07 µM
Compound: CN(CC(=O)c1ccc(OCC(=O)O)c(OCC(=O)O)c1)C(=O)c1ccc(C(=N)N)cc1 [(4-{2-[(4-Carbamimidoyl-benzoyl)-methyl-amino]-acetyl}-2-carboxymethoxy-phenoxy)-acetic acid]

IC50 [3]: 32 µM
Compound: COc1ccc(C[C@H](NC(=O)[C@H](CC(=O)O)NC(=O)CNC(=O)[C@@H](N)CCCNC(=N)N)C(N)=O)cc1 [SC-46749] (H-RGDY(Me)-NH2)

IC50 [4]: 0.072 µM
Compound: N=C(N)c1ccc(CCCCC(=O)N[C@@H](CC(=O)O)C(=O)N[C@@H](Cc2ccccc2)C(=O)O)cc1 [SC-52012]

IC50 [5]: 0.015 µM
Compound: CC(C)CC(=O)N[C@@H](CCCCNC(=O)c1ccc(C(=N)N)cc1)CC(=O)O [7-(4-Carbamimidoyl-benzoylamino)-3-(3-methyl-butyrylamino)-heptanoic acid (GPI 562)]

IC50 [7]: 0.16 µM
Compound: CN(C(=O)c1ccc2c(c1)CN(CCc1ccccc1)C(=O)C(CC(=O)O)N2)c1ccc(C(=N)N)cc1 (stereo unspecified) [{7-[(4-Carbamimidoyl-phenyl)-methyl-carbamoyl]-3-oxo-4-phenethyl-2,3,4,5-tetrahydro-1H-benzo[e][1,4]diazepin-2-yl}-acetic acid]

IC50 [1]: 0.012 µM
Compound: C#C[C@H](CC(=O)O)NC(=O)CN1CCc2ccc(N3CCNCC3)cc2C1=O [L-767679]

IC50 [2]: 0.15 µM
Compound: N=C(N)NCCC[C@@H]1NC(=O)[C@@H](Cc2ccc(O)cc2)NC(=O)C[S+]([O-])C[C@@H](C(=O)O)NC(=O)[C@H](CC(=O)O)NC(=O)CNC1=O (stereo partly specified) [6-Carboxymethyl-12-(3-guanidino-propyl)-15-(4-hydroxy-benzyl)-1,5,8,11,14,17-hexaoxo-1lambda*4*-thia-4,7,10,13,16-pentaaza-cyclooctadecane-3-carboxylic acid (G4120)] ([dY]RGD[Cys(O)(CH2CO)]-OH; lactam N-5)

IC50 [7]: 0.065 µM
Compound: CN(C(=O)c1ccc2c(c1)NC(CC(=O)O)C(=O)N(CCc1ccccc1)C2)c1ccc(C(=N)N)cc1 (stereo unspecified) [{8-[(4-Carbamimidoyl-phenyl)-methyl-carbamoyl]-3-oxo-4-phenethyl-2,3,4,5-tetrahydro-1H-benzo[e][1,4]diazepin-2-yl}-acetic acid(SB-208651)]

IC50 [10]: 0.14 µM
Compound: N=C(N)NCCCC[C@@H]1NC(=O)CCSSC[C@@H](C(N)=O)NC(=O)[C@@H]2CCCN2C(=O)[C@H](Cc2c[nH]c3ccccc23)NC(=O)[C@H](CC(=O)O)NC(=O)CNC1=O ([Mpa][hArg]GDWPC-NH2; disulfide 1-7)

IC50 [8]: 0.02 µM
Compound: N=C(N)c1ccc(N2CCN(c3ccc(OCC(=O)O)cc3)CC2)cc1 [{4-[4-(4-Carbamimidoyl-phenyl)-piperazin-1-yl]-phenoxy}-acetic acid]

IC50 [1]: 0.035 µM
Compound: N=C(c1ccc(C(=O)Nc2ccc3c(c2)C[C@@H](CC(=O)O)CO3)cc1)N1CCOCC1 [{(S)-6-[4-(Imino-morpholin-4-yl-methyl)-benzoylamino]-chroman-3-yl}-acetic acid]

IC50 [1]: 0.01 µM
Compound: Cc1ccc(S(=O)(=O)N[C@@H](CNC(=O)c2ccc3oc(-c4ccc(C(=N)N)cc4)nc3c2)C(=O)O)cc1 [(S)-3-{[2-(4-Carbamimidoyl-phenyl)-benzooxazole-5-carbonyl]-amino}-2-(toluene-4-sulfonylamino)-propionic acid]

IC50 [12]: 0.046 µM
Compound: CC[C@H]1NC(=O)c2cccc(c2)CNC(=O)[C@H](CC(=O)O)NC(=O)CNC(=O)[C@H](CCCN=C(N)N)N(C)C1=O [DMP-728] (cyclo([NMeR]GD[3Amb][dAbu]))

IC50 [8]: 0.059 µM
Compound: [H]/N=C(/N)c1ccc(N2CCN(C3CCN(CC(=O)O)CC3)CC2)cc1 [{4-[4-(4-Carbamimidoyl-phenyl)-piperazin-1-yl]-piperidin-1-yl}-acetic acid (GR 144053)]

IC50 [6]: 0.008 µM
Compound: CCOC(=O)CN1CCN(C[C@@H]2CN(c3ccc(C(N)=NC(=O)OC)cc3)C(=O)O2)CC1 [Gantofiban]

IC50 [1]: 0.06 µM
Compound: N=C(N)c1ccc(C(=O)Nc2ccc3c(c2)CCC(CC(=O)O)C3=O)cc1 (stereo unspecified) [[6-(4-Carbamimidoyl-benzoylamino)-1-oxo-1,2,3,4-tetrahydro-naphthalen-2-yl]-acetic acid]
